Experimental data: paper PMC5874820 (Pharmaceutics, 2018)
Read-outs that look alike come from different tables or passages of the source.

Legend:
PANC-1 xenograft tumor = assay: In vivo PANC-1 tumor growth xenograft model; design: species or system female athymic nude mice; settings: for percentage of inhibition of tumor growth: Panc-1 xenograft in nude mice
Description: The PANC-1 cells derived from human pancreatic carcinoma of ductal cell origin were obtained from National Center for Cell Science, Pune, India. The cells were cultured in Dulbecco's modified medium (DMEM) supplemented with 10% v/v fetal bovine serum (FBS), 1% penicillin, and 1% streptomycin. Cultures (Figure S1, Supplementary Materials) were maintained at 37 °C in a humidified atmosphere with 5% CO2. Female athymic nude mice were obtained from the National Centre for Laboratory Animal Sciences (NCLAS), National Institute of Nutrition (ICMR), Hyderabad, India and were selected after careful initial screening for any external signs of disease or injuries. They were housed in individual cages in the conventional animal facilities of NCLAS, a registered facility with Committee for the Purpose of Control and Supervision of Experimentation on Animals (CPCSEA) (154/1999), Government of India. The environmental conditions were kept at 21 ± 2 °C, with 10-15 air changes per hour and relative humidity of 50-55 percent with 12 h light/dark cycle water. Animals were quarantined for 4 days and all the animals had free access to sterile formulated feed pellets and filtered potable clean water. PANC-1 cells (1 × 10^6) using matrigel were injected subcutaneously into the flanks of mice (Figure S2, Supplementary Materials). […] Each mouse was administered orally (p.o.) every day with either control vehicle (CMC), CUR (50 mg/kg), ART (50 mg/kg), CUR-ART (50 and 100 mg/kg) and Doxorubicin (2 mg/kg) by intravenous (i.v.) route. […] At the same time, the body weight of each animal was measured. At the end of the experiment (4 weeks after cell inoculation), the animals were euthanized by CO2 and sacrificed. Tumors from each animal were removed and measured. Each value represents mean ± SD (Standard Deviation). The control and experimental animal groups were compared by paired t-test. **** p < 0.0001 was considered significant.

[1] = Supersaturation study in SGF and SIF (without enzyme), UV at 420 nm; format: physicochemical; settings: 100 µg/mL CUR, 30 °C
Description: Supersaturation of CUR and CUR-ART were measured in SGF and SIF (without enzyme) medium at 30 °C. The supersaturated solution (CUR 100 µg/mL dissolved in 5 mL of SGF/SIF fluid) was stirred at 800 rpm using a magnetic stirrer at 30 °C. After regular intervals of time 2, 4, 6, 12 and 24 h the solution concentration of curcumin was determined at 420 nm maxima on a Thermo Scientific Evolution 300 UV-Vis spectrometer (Thermo Scientific, Waltham, MA, USA).

[2] = design: method as in PMID 17999464, PMID 1529022; settings: cited from earlier work
[3] = cited from earlier work
[4] = design: method as in doi:10.1039/C4RA11935E; settings: curcumin (crystalline), oral dose of 200 mg/kg, male SD rats; cited from earlier work
[5] = Pharmacokinetic study, oral gavage, curcumin in plasma by HPLC; settings: oral administration, SD rats
Description: Sprague-Dawley rats (200 ± 50 g) were obtained from Sainath Agencies Limited (Hyderabad, India). Animals were acclimatized for 1 week prior to experimentation in a temperature-controlled, 12/12 h light/dark room, and were allowed standard laboratory food and water. The rats were fasted overnight (~18 h) with free access to water before the experiment.
All compounds (200 mg/kg) were suspended in 1% sodium carboxymethylcellulose (CMC) separately and administered by oral gavage. Blood (0.4 mL) was withdrawn from retro-orbital plexus into lithium heparin tube at the following times after drug administration: 30, 45, 60, 90, 120, 180, 240, 360, 480 and 720 min. […]
Curcumin Plasma concentrations of CUR were analyzed by HPLC (Shimadzu, Mumbai, India). The area under the curve (AUC) for serum concentration versus time plots was calculated by linear trapezoidal rate. […]
The HPLC analyses were performed using a Shimadzu Prominence model LC-20AD equipped with 20 mL injection loop, and a photodiode array detector and CUR detected at 420 nm. […]
The standard curve was calculated by a linear relationship between concentration and area with regression factor R = 0.999. The Area under the curve (AUC) for serum concentration vs. Time plots was calculated by the linear trapezoidal rule. […]

[6] = pure curcumin, reference not given

## C[C@@H]1CC[C@H]2[C@@H](C)C(=O)O[C@@H]3O[C@@]4(C)CC[C@@H]1[C@]32OO4 [ART, Artemisinin]
PANC-1 xenograft tumor; 50 mg/kg p.o. daily
  percentage of inhibition of tumor growth: 29.22%

## COc1cccc2c1C(=O)c1c(O)c3c(c(O)c1C2=O)C[C@@](O)(C(=O)CO)C[C@@H]3O[C@H]1C[C@H](N)[C@H](O)[C@H](C)O1 [doxorubicin]
PANC-1 xenograft tumor; 2 mg/kg i.v. daily
  percentage of inhibition of tumor growth: 69.97%
PANC-1 xenograft tumor; p < 0.0001, Panc-1 xenograft in nude mice
  effect on tumor size compared to other solids and controls: decreased tumor size significantly

## Curcumin
[1]
  precipitation / residence time of solubilized CUR: precipitated faster than CUR-ART
PANC-1 xenograft tumor; 50 mg/kg p.o. daily
  percentage of inhibition of tumor growth: 41.23%
[2]
  aqueous solubility: 7.8 µg/mL
[3]; dosage >1 g/kg, ref recent reports
  detection by HPLC at higher dosage levels: could not be detected
[3]; pure curcumin in crystalline form, reference not given
  half-life: 45 to 60 min
[3]; [6]
  half-life: < 60 min
  time in which it decomposes: less than 1 h
[4]
  plasma concentration by HPLC: no plasma concentration for curcumin (crystalline) could be detected
[5]
  detectable curcumin levels in the serum: did not show any detectable levels
